Results reported in patent US6114302A, “Fragrance pro-accords” (The Procter & Gamble Company, priority 1999, dated 2000).

Assay: Fragrance Release Half-life (hydrolysis kinetics of pro-accord monitored by HPLC)
Format: physicochemical
Settings: 90/10 dioxane/phosphate buffered water, buffer pH approximately 2.5, HPLC at 30° C.
Method: For the purposes of the present invention the pro-accords generally have a "Fragrance Release Half-life" of less than or equal to 12 hours when measured in NaH2 PO4 buffer at pH 2.5 and greater than or equal to 0.1 hour when measured in NaH2 PO4 buffer at pH 5.3. The "Fragrance Release Half-life" is defined herein as follows.
The rate at which the accord is released is defined by the formula: […]
and can be further expressed by the formula: [formula] wherein k is the release rate constant and [Pro-accord] is the concentration of pro-accord. For the purposes of the present invention the "Fragrance Release Half-life", t1/2, is related to the release rate constant by the formula: [formula] and this relationship is used for the purposes of the present invention to determine the "fragrance Release Half-life" (FRHL).
Due to the hydrophobic nature of some pro-accords, it is necessary to conduct the determination of t1/2 and k in a mixture of 90/10 dioxane/phosphate buffered water. […] Next 10 mL of the phosphate buffer is admixed with 90 mL of dioxane and the pro-fragrance to be analyzed is added. The hydrolysis kinetics are then monitored by conventional HPLC at 30° C. […]
*t1/2 for the purposes of the present invention is measured in […]

Structure (SMILES)	t1/2 (Fragrance Release Half-life) [h]
c1ccc(CCOC(OCCc2ccccc2)(OCCc2ccccc2)OCCc2ccccc2)cc1 [tetrakis(phenylethyl) orthocarbonate, Tetrakis(phenylethyl) Orthocarbonate]	4.8
c1ccc(CCOC(OCCc2ccccc2)OCCc2ccccc2)cc1 [tris(phenylethyl) orthoformate, Tris(phenylethyl) Orthoformate]	5.9
